Data as given in patent publication US20250381133A1, “ARTICLE IN THE FORM OF EDIBLE SHEET” (TECOZYME INC, priority 2020, published 2025).

Test system: mouse tongue
Test: In vivo biostability / mucoadhesiveness on mouse tongue
Design: species or system ICR mice
Details: after 60 minutes, high salivary flow; FIG. 19
Procedure: Eight-week-old ICR mice were anesthetized with 100mg/kg of ketamine and 16.7 mg/kg of xylazine cocktail. 10 mg of the oral patch was applied to the tongue. 0.2 mg/kg of Pilocarpine was administered intraperitoneally to stimulate salivation. Tongue tissues were harvested at 30 and 60 minutes post-injection for SEM and fluorescence imaging.

Q: For “unencapsulated FITC-BSA: FITC-labeled bovine serum albumin, not loaded in a patch”, which “retention of FITC-BSA on the tongue surface” value is on record?
A: Its value is “completely washed away”.
